Entries after “also recorded” stand apart in the source; their conditions may differ.

From patent publication US7648974B1, “19-nor-vitamin D analogs with 3,2-dihydrofuran ring” (Wisconsin Alumni Research Foundation, priority 2008, dated 2010) come the findings set out here.

Test [1] deals with T1, full-length recombinant rat vitamin D receptor (Rattus norvegicus, UniProt P13053).
T1 sequence (P13053 1-423): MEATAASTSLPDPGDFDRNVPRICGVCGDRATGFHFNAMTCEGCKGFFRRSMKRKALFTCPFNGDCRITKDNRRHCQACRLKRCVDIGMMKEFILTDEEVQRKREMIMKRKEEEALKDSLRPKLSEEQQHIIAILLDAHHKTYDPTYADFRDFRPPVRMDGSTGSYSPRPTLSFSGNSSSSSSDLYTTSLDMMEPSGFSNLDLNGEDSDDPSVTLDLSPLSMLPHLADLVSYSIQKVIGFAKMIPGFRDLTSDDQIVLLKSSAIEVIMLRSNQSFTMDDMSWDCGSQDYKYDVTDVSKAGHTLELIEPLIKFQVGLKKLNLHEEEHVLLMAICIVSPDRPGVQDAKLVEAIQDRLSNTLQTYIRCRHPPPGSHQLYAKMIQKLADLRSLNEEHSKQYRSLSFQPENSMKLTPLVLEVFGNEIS
Description: Vitamin D Receptor Binding
Full-length recombinant rat receptor was expressed in E. coli BL21 (DE3) Codon Plus RIL cells and purified to homogeneity using two different column chromatography systems. The first system was a nickel affinity resin that utilizes the C-terminal histidine tag on this protein. The protein that was eluted from this resin was further purified using ion exchange chromatography (S-Sepharose Fast Flow). Aliquots of the purified protein were quick frozen in liquid nitrogen and stored at −80° C. until use. For use in binding assays, the protein was diluted in TEDK50 (50 mM Tris, 1.5 mM EDTA, pH7.4, 5 mM DTT, 150 mM KCl) with 0.1% Chaps detergent.
Radiolabeled and unlabeled ligands were added to 100 mcl of the diluted protein at a final ethanol concentration of ≦10%, mixed and incubated overnight on ice to reach binding equilibrium. The following day, 100 mcl of hydroxylapatite slurry (50%) was added to each tube and mixed at 10-minute intervals for 30 minutes. The hydroxylapaptite was collected by centrifugation and then washed three times with Tris-EDTA buffer (50 mM Tris, 1.5 mM EDTA, pH 7.4) containing 0.5% Titron X-100. After the final wash, the pellets were transferred to scintillation vials containing 4 ml of Biosafe II scintillation cocktail, mixed and placed in a scintillation counter. Total binding was determined from the tubes containing only radiolabeled ligand.

Test [2] relates to Sprague-Dawley rats. Nature of the test: Intestinal calcium transport (everted gut sac method). Format: in vivo. Conditions: FIG. 5. How it is done:
(§1) Intestinal Calcium Transport and Bone Calcium Mobilization
(§2) Male, weanling Sprague-Dawley rats were placed on Diet 11 (0.47% Ca) diet+AEK oil for one week followed by Diet 11 (0.02% Ca)+AEK oil for 3 weeks. The rats were then switched to a diet containing 0.47% Ca for one week followed by two weeks on a diet containing 0.02% Ca. Dose administration began during the last week on 0.02% calcium diet. Four consecutive ip doses were given approximately 24 hours apart. Twenty-four hours after the last dose, blood was collected from the severed neck and the concentration of serum calcium determined as a measure of bone calcium mobilization. The first 10 cm of the intestine was also collected for intestinal calcium transport analysis using the everted gut sac method.

For test [3], the system named is Sprague-Dawley rats. As to the kind of experiment: Bone calcium mobilization (serum calcium). Format: in vivo. Particulars: FIG. 4; for serum calcium value: 7,020 pmol/day for 4 consecutive days, ip, low calcium diet (0.02%). On the procedure: as §1, §2
For test [4], the system named is 24-hydroxylase (24Ohase) gene promoter. As to the kind of experiment: In vitro transcription assay, luciferase reporter in ROS 17/2.8 (bone) cells. Format: cell-based. Particulars: ROS 17/2.8 cells, 24-hydroxylase promoter luciferase; FIG. 3; read-out: EC50, transcriptional activity in bone cells. On the procedure:
In Vitro Transcription Assay
Transcription activity was measured in ROS 17/2.8 (bone) cells that were stably transfected with a 24-hydroxylase (24Ohase) gene promoter upstream of a luciferase reporter gene (Arbour et al., 1998). Cells were given a range of doses. Sixteen hours after dosing the cells were harvested and luciferase activities were measured using a luminometer.
RLU=relative luciferase units.
For orientation: Reporter assays use an easily measured gene product as a stand-in for the process of interest.

The test system of test [5] is Human promyelocytic leukemia (HL60) cells. Nature of the test: HL-60 differentiation (nitro blue tetrazolium reduction). The test is classed as cell-based. Conditions: for EC50: Homo sapiens, HL-60, HL60 cells, FIG. 2. On the procedure: Serial dilutions were prepared so that a range of drug concentrations could be tested without changing the final concentration of ethanol (≦0.2%) present in the cell cultures.
Human promyelocytic leukemia (HL60) cells were grown in RPMI-1640 medium containing 10% fetal bovine serum. The cells were incubated at 37° C. in the presence of 5% CO2.
HL60 cells were plated at 1.2×10^5 cells/ml. Eighteen hours after plating, cells in duplicate were treated with drug. Four days later, the cells were harvested and a nitro blue tetrazolium reduction assay was performed (Collins et al., 1979; J. Exp. Med. 149:969-974). The percentage of differentiated cells was determined by counting a total of 200 cells and recording the number that contained intracellular black-blue formazan deposits. Verification of differentiation to monocytic cells was determined by measuring phagocytic activity (data not shown).

By Ki is commonly meant the equilibrium dissociation constant of an inhibitor or competing ligand from its target. One may read the EC50 as the midpoint of the concentration-response curve. In the case of `C[C@H](CCCC(C)(C)O)C1CCC2/C(=C/C=C3\C[C@@H](O)C4=CCO[C@@H]4C3)CCC[C@@]21C` (stereo partly drawn) [B-REV5, 3,2-dihydrofuran-1α,25-dihydroxy-19-nor-vitamin D3], the inhibition constant Ki in test [1] is 0.8 µM. For the same molecule, the “VDR affinity, less potent than 1,25-(OH)2D3” value in test [1] (relative to 1,25-(OH)2D3) is about 40 times. Moreover, the “VDR binding diminished as compared to 1α,25-dihydroxyvitamin D3” value in test [1] (relative to 1α,25-dihydroxyvitamin D3) is about 10 fold. Further, the “VDR binding affinity lower than the native hormone” value in test [1] (relative to the native hormone) was “approximately 4 orders of magnitude”. Besides, in the test with Sprague-Dawley rats [2] (780 pmol/day for 4 consecutive days), the “intestinal calcium transport activity (in words)” value was “almost the same activity as 1,25-(OH)2D3”. In addition, the “intestinal calcium transport activity in vivo (in words)” value in the test with Sprague-Dawley rats [2] (in vivo, compared to 1,25-(OH)2D3) is recorded as “significant intestinal calcium transport activity; also recorded: about the same potency”. Moreover, the serum calcium value in the test on Sprague-Dawley rats [3] came to 6.1 mg/dL. For the same molecule, the EC50 in test [4] came to 0.3 µM; in test [5], 1 µM. The “HL-60 cell differentiation, less active/potent than 1,25(OH)2D3” value in test [5] (relative to 1,25(OH)2D3) is given as “about 1,000 times”. In addition, the “potency to promote HL60 cell differentiation, less than calcitriol” value in test [5] (relative to calcitriol) is listed as 3 logs.

`C=C1/C(=C\C=C2/CCC[C@]3(C)[C@@H]([C@H](C)CCCC(C)(C)O)CC[C@@H]23)C[C@@H](O)C[C@@H]1O` [1,25-(OH)2D3, 1α,25-dihydroxyvitamin D3, reference compound]: the serum calcium value in the test on Sprague-Dawley rats [3] is listed as 7.9 mg/dL. For the same molecule, the “bone calcium mobilization activity (in words)” value in the test with Sprague-Dawley rats [3] (in vivo, doses tested) is “increased serum calcium levels at all the dosages tested”. Also, the EC50 in test [4] was 0.0002 µM; in test [5], 0.003 µM.
